Measured values taken from patent publication US20160303095A1, “METHODS OF TREATING HEPATITIS B VIRUS” (Gilead Sciences, Inc., priority 2015, published 2016).
Where two headings read alike, the source gives them in different places.

How the values were obtained:
[1] = Alamar Blue cell viability assay; type: cell-based; conditions: human; D 28; PHH donor 8181; virus 21p
KDM6A = target: T1, KDM6A (Homo sapiens, UniProt O15550); assay: Biochemical KDM inhibition assay (LANCE), KDM6A; conditions: read-out: Biochemical IC50 KDM 6A
T1 construct: host or cells: Sf9 cells
T1 sequence (O15550 whole entry): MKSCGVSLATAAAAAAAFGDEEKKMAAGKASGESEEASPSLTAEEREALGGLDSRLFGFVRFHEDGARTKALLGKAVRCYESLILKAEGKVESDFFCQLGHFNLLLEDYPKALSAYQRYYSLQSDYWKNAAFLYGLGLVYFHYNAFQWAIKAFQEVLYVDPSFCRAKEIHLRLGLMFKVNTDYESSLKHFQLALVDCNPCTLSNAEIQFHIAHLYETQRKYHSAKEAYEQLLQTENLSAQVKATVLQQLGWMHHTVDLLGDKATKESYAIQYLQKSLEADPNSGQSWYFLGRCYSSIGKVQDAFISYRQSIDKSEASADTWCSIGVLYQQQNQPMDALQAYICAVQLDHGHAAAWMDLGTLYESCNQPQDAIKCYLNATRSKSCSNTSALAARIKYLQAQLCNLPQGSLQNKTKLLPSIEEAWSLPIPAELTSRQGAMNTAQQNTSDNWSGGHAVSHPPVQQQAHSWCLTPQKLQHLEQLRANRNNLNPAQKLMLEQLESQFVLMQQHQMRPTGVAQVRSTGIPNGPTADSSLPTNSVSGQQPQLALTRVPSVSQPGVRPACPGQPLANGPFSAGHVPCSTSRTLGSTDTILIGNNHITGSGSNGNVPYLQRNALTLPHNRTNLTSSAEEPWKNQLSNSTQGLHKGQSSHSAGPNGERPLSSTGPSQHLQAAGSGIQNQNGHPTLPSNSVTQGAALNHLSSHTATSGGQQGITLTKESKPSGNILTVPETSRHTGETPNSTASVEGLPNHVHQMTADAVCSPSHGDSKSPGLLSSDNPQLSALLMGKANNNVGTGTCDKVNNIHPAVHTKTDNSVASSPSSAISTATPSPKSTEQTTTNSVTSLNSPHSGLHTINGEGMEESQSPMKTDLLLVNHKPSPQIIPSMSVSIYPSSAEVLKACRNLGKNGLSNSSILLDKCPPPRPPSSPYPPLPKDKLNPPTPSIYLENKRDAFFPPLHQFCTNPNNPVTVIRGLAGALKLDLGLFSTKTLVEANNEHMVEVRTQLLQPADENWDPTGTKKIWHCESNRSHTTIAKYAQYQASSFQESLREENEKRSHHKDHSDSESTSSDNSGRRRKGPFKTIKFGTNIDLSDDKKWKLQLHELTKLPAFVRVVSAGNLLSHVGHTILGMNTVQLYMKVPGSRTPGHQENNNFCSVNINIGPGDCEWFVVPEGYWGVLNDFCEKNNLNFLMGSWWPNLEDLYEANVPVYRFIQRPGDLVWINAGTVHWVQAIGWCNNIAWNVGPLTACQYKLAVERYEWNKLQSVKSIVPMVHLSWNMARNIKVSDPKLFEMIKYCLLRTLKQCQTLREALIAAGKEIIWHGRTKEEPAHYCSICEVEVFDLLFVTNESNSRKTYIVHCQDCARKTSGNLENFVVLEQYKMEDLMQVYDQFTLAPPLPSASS
Protocol: Representative compounds were characterized for their inhibition of KDM5 using biotinylated histone substrates. Inhibition was measured in vitro (CEREP Poitier, Le Bois l'Evêque, France) following experimental conditions described in Table 2. Briefly, the test compound, reference compound or water (control) was mixed with about 2-20 ng of recombinant, Human enzymes expressed in Sf9 cells in a buffer containing 45 mM Hepes/Tris (pH 7), 5 μM FAS, 100 μM ascorbic acid, 10 μM 2-oxoglutarate, 0.01% Tween 20 and 0.01% BSA. Thereafter, the reaction was initiated by adding the biotin-labeled substrate, and the mixture was incubated for 10-30 min at room temperature. For basal control measurements, the enzyme was omitted from the reaction mixture. Following incubation the reaction was stopped by adding 1 mM EDTA. After 5 min, the anti-methyl histone antibody labeled with europium chelate and the Ulight streptavidine (Perkin Elmer Waltham, Mass.) were added. After 60 min more, the fluorescence transfer was measured at λex=320 nm and λem=620 and λem=665 nm using a microplate reader (Envision, Perkin Elmer) (LANCE). The enzyme activity was determined by dividing the signal measured at λem=665 nm by that measured at 620 nm (ratio).

KDM4C = target: T2, KDM4C (Homo sapiens, UniProt Q9H3R0); assay: Biochemical KDM inhibition assay (LANCE), KDM4C; conditions: read-out: Biochemical IC50 KDM 4C
T2 sequence (Q9H3R0 1-1056): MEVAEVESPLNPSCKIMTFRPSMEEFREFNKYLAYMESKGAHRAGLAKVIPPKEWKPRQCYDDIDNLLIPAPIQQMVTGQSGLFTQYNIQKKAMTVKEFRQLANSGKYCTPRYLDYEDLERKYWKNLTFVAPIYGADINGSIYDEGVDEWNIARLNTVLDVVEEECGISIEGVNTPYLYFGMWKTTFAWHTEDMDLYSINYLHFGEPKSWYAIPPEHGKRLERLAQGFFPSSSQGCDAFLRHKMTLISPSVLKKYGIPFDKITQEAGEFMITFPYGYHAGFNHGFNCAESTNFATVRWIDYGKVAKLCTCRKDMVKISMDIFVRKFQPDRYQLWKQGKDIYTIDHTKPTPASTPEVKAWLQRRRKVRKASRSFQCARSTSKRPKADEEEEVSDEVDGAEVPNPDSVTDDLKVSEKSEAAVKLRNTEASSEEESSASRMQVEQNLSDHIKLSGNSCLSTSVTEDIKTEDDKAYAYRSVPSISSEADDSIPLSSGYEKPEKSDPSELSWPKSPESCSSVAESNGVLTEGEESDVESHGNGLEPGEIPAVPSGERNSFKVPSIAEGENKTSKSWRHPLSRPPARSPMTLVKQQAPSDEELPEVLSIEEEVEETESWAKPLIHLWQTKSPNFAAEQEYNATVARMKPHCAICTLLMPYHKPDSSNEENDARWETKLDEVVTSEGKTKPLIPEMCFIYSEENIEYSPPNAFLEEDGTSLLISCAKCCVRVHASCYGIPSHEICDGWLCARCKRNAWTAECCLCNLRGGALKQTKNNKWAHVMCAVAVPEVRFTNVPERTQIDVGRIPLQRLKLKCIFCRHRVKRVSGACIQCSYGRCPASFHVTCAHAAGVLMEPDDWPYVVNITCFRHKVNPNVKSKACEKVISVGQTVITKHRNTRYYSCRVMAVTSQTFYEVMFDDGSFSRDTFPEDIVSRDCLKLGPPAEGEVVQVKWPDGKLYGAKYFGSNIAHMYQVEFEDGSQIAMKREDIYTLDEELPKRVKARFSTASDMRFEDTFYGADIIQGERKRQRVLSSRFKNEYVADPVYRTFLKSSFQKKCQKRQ

HBV = assay: PHH screening protocol: HBsAg and HBeAg levels by MSD ELISA; type: cell-based, Hepatitis B Virus; conditions: for EC50: Hepatitis B virus; for time dependency of anti HBV activity: PHH donor 8181 infected with patient virus 21p (GTA)
[2] = read-out: HBeAg EC50, D 8, PHH donor 8181, virus 21p
[3] = read-out: HBeAg EC50, D 13, PHH donor 8181, virus 21p
[4] = read-out: HBeAg EC50, D 17, PHH donor 8181, virus 21p
[5] = read-out: HBeAg EC50, D 22, PHH donor 8181, virus 21p
[6] = read-out: HBeAg EC50, D 27, PHH donor 8181, virus 21p
[7] = read-out: HBeAg EC50, HBV-infected PHH
[8] = read-out: HBsAg EC50, D 8, PHH donor 8181, virus 21p
[9] = read-out: HBsAg EC50, D 13, PHH donor 8181, virus 21p
[10] = read-out: HBsAg EC50, D 17, PHH donor 8181, virus 21p
[11] = read-out: HBsAg EC50, D 22, PHH donor 8181, virus 21p
[12] = read-out: HBsAg EC50, D 27, PHH donor 8181, virus 21p
[13] = read-out: HBsAg EC50, HBV-infected PHH

| SMILES | CC50 at 28 day [1] [µM] | IC50 (KDM6A) [nM] | IC50 (KDM4C) [nM] | EC50 (HBV; [2]) [nM] | EC50 (HBV; [3]) [nM] | EC50 (HBV; [4]) [nM] | EC50 (HBV; [5]) [nM] | EC50 (HBV; [6]) [nM] | EC50 (HBV; read-out: HBeAg EC50, D 31, PHH donor 8181, virus 21p) [nM] | EC50 (HBV; [7]) [nM] | EC50 (HBV; [8]) [nM] | EC50 (HBV; [9]) [nM] | EC50 (HBV; [10]) [nM] | EC50 (HBV; [11]) [nM] | EC50 (HBV; [12]) [nM] | EC50 (HBV; read-out: HBsAg EC50, D 31, PHH donor 8181, virus 21p) [nM] | EC50 (HBV; [13]) [nM] | time dependency of anti HBV activity (HBV) |
| --- | --- | --- | --- | --- | --- | --- | --- | --- | --- | --- | --- | --- | --- | --- | --- | --- | --- | --- |
| Nc1c(C(=O)O)ccnc1C(=O)O [Example 7, reference compound] | > 50 | 930 | 110 | > 50000 | 4030 | 1100 | 90 | 60 | 60 | 642 | > 50000 | 990 | 580 | 70 | 60 | 60 | 481 | time dependent |
| CCN(CCN(C)C)C(=O)CNCc1cc(C(=O)O)ccn1 [Example 9] | > 100 | 1300 | 57 | > 100000 | 849 | 267 | 153 | 300 | – | 1630 | > 100000 | 2330 | 369 | 200 | 400 | – | 2020 | time dependent |
